According to ChEMBL document CHEMBL3885881, “DrugMatrix”:

Species: Rattus norvegicus
Test: DrugMatrix - Regimen: Daily Repeat
Type: toxicity, organism-based, Sprague-Dawley
Set-up: regimen Daily Repeat, gender Male, age 6-8 weeks
Details: in vivo, po, route oral GAVAGE, vehicle 100 % WATER; for ABSOLUTE BASOPHIL / ABSOLUTE EOSINOPHIL / ABSOLUTE LYMPHOCYTE / ABSOLUTE MONOCYTE / ABSOLUTE SEGMENTED NEUTROPHIL / BASOPHIL / EOSINOPHIL / ERYTHROCYTE COUNT / HEMATOCRIT / HEMOGLOBIN / LEUKOCYTE COUNT / LYMPHOCYTE / MEAN CORPUSCULAR HEMOGLOBIN / MEAN CORPUSCULAR HEMOGLOBIN CONCENTRATION / MEAN CORPUSCULAR VOLUME / MONOCYTE / NEUTROPHIL / NUCLEATED RED BLOOD CELLS / PLATELET COUNT: tissue Blood; for ALANINE AMINOTRANSFERASE / ALBUMIN / ALKALINE PHOSPHATASE / ASPARTATE AMINOTRANSFERASE / BLOOD UREA NITROGEN / CARBON DIOXIDE / CHLORIDE / CHOLESTEROL / CREATINE PHOSPHOKINASE / CREATININE / GLUCOSE / LACTATE DEHYDROGENASE / LIPASE / PHOSPHORUS / POTASSIUM / SODIUM / TOTAL BILIRUBIN / TOTAL PROTEIN / URIC ACID: tissue Plasma
[1] = 0 mg/kg, 72 h, dose level Control, time 3 day
[2] = 0 mg/kg, 120 h, dose level Control, time 5 day
[3] = 20 mg/kg, 72 h, dose level Low, time 3 day

C=CCC1(C(C)CCC)C(=O)NC(=O)NC1=O (centres undefined) [SECOBARBITAL]
ABSOLUTE BASOPHIL [1]: 0 CELLS/uL
ABSOLUTE EOSINOPHIL [1]: 32.5 CELLS/uL
ABSOLUTE LYMPHOCYTE [1]: 9305.83 CELLS/uL
ABSOLUTE MONOCYTE [1]: 43.83 CELLS/uL
ABSOLUTE SEGMENTED NEUTROPHIL [1]: 817.83 CELLS/uL
BASOPHIL [1]: 0%
EOSINOPHIL [1]: 0.33%
ERYTHROCYTE COUNT [1]: 5.38 x10E6/uL
HEMATOCRIT [1]: 33.63%
HEMOGLOBIN [1]: 13.17 G/DL
LEUKOCYTE COUNT [1]: 10.2 x10E3/uL
LYMPHOCYTE [1]: 91.17%
MEAN CORPUSCULAR HEMOGLOBIN [1]: 24.5 pg
MEAN CORPUSCULAR HEMOGLOBIN CONCENTRATION [1]: 39.13 G/DL
MEAN CORPUSCULAR VOLUME [1]: 62.53 fL
MONOCYTE [1]: 0.5%
NEUTROPHIL [1]: 8%
NUCLEATED RED BLOOD CELLS [1]: 0.17 /100WBC
PLATELET COUNT [1]: 858 x10E3/uL
ALANINE AMINOTRANSFERASE [1]: 55.67 u/L
ALBUMIN [1]: 4.07 G/DL
ALKALINE PHOSPHATASE [1]: 337 u/L
ASPARTATE AMINOTRANSFERASE [1]: 84 u/L
BLOOD UREA NITROGEN [1]: 13.17 mg/dL
CARBON DIOXIDE [1]: 34.17 mmol/L
CHLORIDE [1]: 99.33 MEQ/L
CHOLESTEROL [1]: 78.83 mg/dL
CREATINE PHOSPHOKINASE [1]: 576.83 u/L
CREATININE [1]: 0.17 mg/dL
GLUCOSE [1]: 152.67 mg/dL
LACTATE DEHYDROGENASE [1]: 147.83 u/L
LIPASE [1]: 9.5 u/L
PHOSPHORUS [1]: 10.78 mg/dL
POTASSIUM [1]: 6.34 MEQ/L
SODIUM [1]: 144.12 MEQ/L
TOTAL BILIRUBIN [1]: 0.18 mg/dL
TOTAL PROTEIN [1]: 6.08 G/DL
URIC ACID [1]: 0.65 mg/dL
ABSOLUTE BASOPHIL [2]: 0 CELLS/uL
ABSOLUTE EOSINOPHIL [2]: 31.17 CELLS/uL
ABSOLUTE LYMPHOCYTE [2]: 7918.33 CELLS/uL
ABSOLUTE MONOCYTE [2]: 58.33 CELLS/uL
ABSOLUTE SEGMENTED NEUTROPHIL [2]: 725.5 CELLS/uL
BASOPHIL [2]: 0%
EOSINOPHIL [2]: 0.33%
ERYTHROCYTE COUNT [2]: 5.32 x10E6/uL
HEMATOCRIT [2]: 33.53%
HEMOGLOBIN [2]: 13.17 G/DL
LEUKOCYTE COUNT [2]: 8.73 x10E3/uL
LYMPHOCYTE [2]: 90.33%
MEAN CORPUSCULAR HEMOGLOBIN [2]: 24.82 pg
MEAN CORPUSCULAR HEMOGLOBIN CONCENTRATION [2]: 39.33 G/DL
MEAN CORPUSCULAR VOLUME [2]: 63.12 fL
MONOCYTE [2]: 0.67%
NEUTROPHIL [2]: 8.67%
NUCLEATED RED BLOOD CELLS [2]: 0 /100WBC
PLATELET COUNT [2]: 1144.83 x10E3/uL
ALANINE AMINOTRANSFERASE [2]: 60.5 u/L
ALBUMIN [2]: 3.97 G/DL
ALKALINE PHOSPHATASE [2]: 343.17 u/L
ASPARTATE AMINOTRANSFERASE [2]: 80.83 u/L
BLOOD UREA NITROGEN [2]: 15 mg/dL
CARBON DIOXIDE [2]: 31 mmol/L
CHLORIDE [2]: 99.75 MEQ/L
CHOLESTEROL [2]: 71.5 mg/dL
CREATINE PHOSPHOKINASE [2]: 237.17 u/L
CREATININE [2]: 0.17 mg/dL
GLUCOSE [2]: 137 mg/dL
LACTATE DEHYDROGENASE [2]: 146.17 u/L
LIPASE [2]: 11.5 u/L
PHOSPHORUS [2]: 10.13 mg/dL
POTASSIUM [2]: 6 MEQ/L
SODIUM [2]: 145 MEQ/L
TOTAL BILIRUBIN [2]: 0.13 mg/dL
TOTAL PROTEIN [2]: 5.82 G/DL
URIC ACID [2]: 0.62 mg/dL
ABSOLUTE BASOPHIL [3]: 0 CELLS/uL
ABSOLUTE EOSINOPHIL [3]: 51.33 CELLS/uL
ABSOLUTE LYMPHOCYTE [3]: 9158 CELLS/uL
ABSOLUTE MONOCYTE [3]: 51.33 CELLS/uL
ABSOLUTE SEGMENTED NEUTROPHIL [3]: 572.67 CELLS/uL
BASOPHIL [3]: 0%
EOSINOPHIL [3]: 0.67%
ERYTHROCYTE COUNT [3]: 5.3 x10E6/uL
HEMATOCRIT [3]: 33.23%
HEMOGLOBIN [3]: 12.87 G/DL
LEUKOCYTE COUNT [3]: 9.83 x10E3/uL
LYMPHOCYTE [3]: 93%
MEAN CORPUSCULAR HEMOGLOBIN [3]: 24.27 pg
MEAN CORPUSCULAR HEMOGLOBIN CONCENTRATION [3]: 38.7 G/DL
MEAN CORPUSCULAR VOLUME [3]: 62.83 fL
MONOCYTE [3]: 0.67%
NEUTROPHIL [3]: 5.67%
NUCLEATED RED BLOOD CELLS [3]: 0 /100WBC
PLATELET COUNT [3]: 930.33 x10E3/uL
ALANINE AMINOTRANSFERASE [3]: 63 u/L
ALBUMIN [3]: 4.2 G/DL
ALKALINE PHOSPHATASE [3]: 397.67 u/L
ASPARTATE AMINOTRANSFERASE [3]: 98.33 u/L
BLOOD UREA NITROGEN [3]: 13.33 mg/dL
CARBON DIOXIDE [3]: 35 mmol/L
CHLORIDE [3]: 99 MEQ/L
CHOLESTEROL [3]: 83.33 mg/dL
CREATINE PHOSPHOKINASE [3]: 496 u/L
CREATININE [3]: 0.16 mg/dL
GLUCOSE [3]: 140.67 mg/dL
LACTATE DEHYDROGENASE [3]: 160.33 u/L
LIPASE [3]: 9.67 u/L
PHOSPHORUS [3]: 11.03 mg/dL
POTASSIUM [3]: 6.51 MEQ/L
SODIUM [3]: 143.6 MEQ/L
TOTAL BILIRUBIN [3]: 0.2 mg/dL
TOTAL PROTEIN [3]: 6.1 G/DL
URIC ACID [3]: 0.83 mg/dL
